US20240398828A1, “HETERO-ATOM CONTAINING COMPOUNDS AND USES THEREOF” (Kumquat Biosciences Inc., priority 2021, published 2024)

Assays:
[1] = target: T1, PTPN1 (i.e., PTP1B) (Homo sapiens, UniProt P18031); assay: Phosphatase activity assay (DiFMUP substrate), PTP1B; assay type: biochemical; settings: compounds binned ≤1 uM or >1 uM
T1 sequence (P18031 1-435): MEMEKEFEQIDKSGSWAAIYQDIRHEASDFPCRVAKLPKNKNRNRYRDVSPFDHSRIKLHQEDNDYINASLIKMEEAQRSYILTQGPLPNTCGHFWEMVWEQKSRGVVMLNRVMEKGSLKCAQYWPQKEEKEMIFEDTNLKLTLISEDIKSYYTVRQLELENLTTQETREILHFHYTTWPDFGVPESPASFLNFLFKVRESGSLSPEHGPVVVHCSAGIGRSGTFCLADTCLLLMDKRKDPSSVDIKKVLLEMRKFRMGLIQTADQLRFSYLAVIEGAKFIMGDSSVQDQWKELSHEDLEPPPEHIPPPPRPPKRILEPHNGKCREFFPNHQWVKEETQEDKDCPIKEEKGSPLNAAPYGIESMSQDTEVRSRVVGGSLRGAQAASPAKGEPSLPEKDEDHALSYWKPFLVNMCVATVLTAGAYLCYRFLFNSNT
Summary of the method: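 First, serially diluted inhibitor is mixed about 2 minutes with enzyme in pH 7.5 HEPES/NaCl/EDTA/DTT/Tween-20 buffer. Next, DiFMUP is added at the enzyme's Km, approximately 45 μM for PTPN2. Finally, DiFMU appearance is read continuously at room temperature and rates are fitted for IC50.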

[2] = target: T2, PTPN2 (i.e., TC-PTP) (Homo sapiens, UniProt P17706); assay: Phosphatase activity assay (DiFMUP substrate), PTPN2; assay type: biochemical; settings: compounds binned ≤1 uM or >1 uM
T2 sequence (P17706 1-415): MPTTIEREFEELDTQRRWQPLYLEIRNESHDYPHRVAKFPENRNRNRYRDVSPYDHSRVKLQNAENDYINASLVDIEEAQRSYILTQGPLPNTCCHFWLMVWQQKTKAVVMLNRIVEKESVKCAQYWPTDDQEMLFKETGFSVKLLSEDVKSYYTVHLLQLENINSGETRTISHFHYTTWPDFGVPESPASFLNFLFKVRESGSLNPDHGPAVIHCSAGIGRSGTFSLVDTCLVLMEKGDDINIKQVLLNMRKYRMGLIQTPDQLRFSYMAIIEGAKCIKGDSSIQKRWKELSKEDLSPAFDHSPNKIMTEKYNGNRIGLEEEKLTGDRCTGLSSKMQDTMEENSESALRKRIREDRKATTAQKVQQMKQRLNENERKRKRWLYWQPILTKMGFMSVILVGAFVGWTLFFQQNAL
Summary of the method: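 Using a Km-level DiFMUP substrate and 0.025 ng/ul PTPN2, phosphatase activity is tracked by DiFMU emission at 450 nm over about 15–30 minutes. Initial rates at ten inhibitor concentrations give IC50 by four-parameter fitting.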

Structure (SMILES)	IC50 [1]	IC50 [2]
CS(=O)(=O)n1nc(C2CC2)cc1-c1ccc(O)c(N2CC(=O)NS2(=O)=O)c1F [Compound 495, 5-(3-(3-cyclopropyl-1-(methylsulfonyl)-1H-pyrazol-5-yl)-2-fluoro-6-hydroxyphenyl)-1,2,5-thiadiazolidin-3-one 1,1-dioxide]	≤ 1000 nM	≤ 1000 nM
Cc1cc(-c2ccc(O)c(N3CC(=O)NS3(=O)=O)c2F)sn1 [Compound 283, 5-(2-fluoro-6-hydroxy-3-(3-methylisothiazol-5-yl)phenyl)-1,2,5-thiadiazolidin-3-one 1,1-dioxide]	≤ 1000 nM	≤ 1000 nM
CC(C)CCn1cc(-c2cc(O)cc(N3CC(=O)NS3(=O)=O)c2)cn1 [Compound 184, 5-(3-hydroxy-5-(1-isopentyl-1H-pyrazol-4-yl)phenyl)-1,2,5-thiadiazolidin-3-one 1,1-dioxide]	> 1000 nM	> 1000 nM
O=C1CN(c2c(O)ccc(C3=CCOCC3)c2F)S(=O)(=O)N1 [Compound 405, 5-(3-(3,6-dihydro-2H-pyran-4-yl)-2-fluoro-6-hydroxyphenyl)-1,2,5-thiadiazolidin-3-one 1,1-dioxide]	≤ 1000 nM	≤ 1000 nM
O=C1CN(c2c(O)ccc(-c3cnn(Cc4cccc(Cl)c4)c3)c2F)S(=O)(=O)N1 [Compound 223, 5-(3-(1-(3-chlorobenzyl)-1H-pyrazol-4-yl)-2-fluoro-6-hydroxyphenyl)-1,2,5-thiadiazolidin-3-one 1,1-dioxide]	≤ 1000 nM	≤ 1000 nM
COC(=O)n1nc(C2CC2)cc1-c1ccc(O)c(N2CC(=O)NS2(=O)=O)c1F [Compound 545, methyl 3-cyclopropyl-5-(3-(1,1-dioxido-4-oxo-1,2,5-thiadiazolidin-2-yl)-2-fluoro-4-hydroxyphenyl)-1H-pyrazole-1-carboxylate]	≤ 1000 nM	≤ 1000 nM
Cn1cc(-c2ccc(O)c(N3CC(=O)NS3(=O)=O)c2F)nc1O [Compound 527, 5-(2-fluoro-6-hydroxy-3-(2-hydroxy-1-methyl-1H-imidazol-4-yl)phenyl)-1,2,5-thiadiazolidin-3-one 1,1-dioxide]	≤ 1000 nM	≤ 1000 nM
Cc1ccc(-c2ccc(O)c(N3CC(=O)NS3(=O)=O)c2F)s1 [Compound 128, 5-(2-fluoro-6-hydroxy-3-(5-methylthiophen-2-yl)phenyl)-1,2,5-thiadiazolidin-3-one 1,1-dioxide]	≤ 1000 nM	≤ 1000 nM
O=C1CN(c2c(O)ccc(-c3cnn(C(F)F)c3)c2F)S(=O)(=O)N1 [Compound 273, 5-(3-(1-(difluoromethyl)-1H-pyrazol-4-yl)-2-fluoro-6-hydroxyphenyl)-1,2,5-thiadiazolidin-3-one 1,1-dioxide]	≤ 1000 nM	≤ 1000 nM
COc1ncc(-c2ccc(O)c(N3CC(=O)NS3(=O)=O)c2F)cn1 [Compound 118, 5-(2-fluoro-6-hydroxy-3-(2-methoxypyrimidin-5-yl)phenyl)-1,2,5-thiadiazolidin-3-one 1,1-dioxide]	≤ 1000 nM	≤ 1000 nM
O=C1CN(c2c(O)ccc(-c3cnn(C(=O)C4CC4)c3)c2F)S(=O)(=O)N1 [Compound 537, 5-(3-(1-(cyclopropanecarbonyl)-1H-pyrazol-4-yl)-2-fluoro-6-hydroxyphenyl)-1,2,5-thiadiazolidin-3-one 1,1-dioxide]	≤ 1000 nM	≤ 1000 nM
O=C1CN(c2c(O)ccc(-c3cc(C4CCCCC4)n[nH]3)c2F)S(=O)(=O)N1 [Compound 371, 5-(3-(3-cyclohexyl-1H-pyrazol-5-yl)-2-fluoro-6-hydroxyphenyl)-1,2,5-thiadiazolidin-3-one 1,1-dioxide]	≤ 1000 nM	≤ 1000 nM
O=C1CN(c2c(O)ccc(-c3cn[nH]c3)c2F)S(=O)(=O)N1 [Compound 477, 5-(2-fluoro-6-hydroxy-3-(1H-pyrazol-4-yl)phenyl)-1,2,5-thiadiazolidin-3-one 1,1-dioxide]	≤ 1000 nM	≤ 1000 nM
COc1cccc(-n2cnc(-c3ccc(O)c(N4CC(=O)NS4(=O)=O)c3F)c2)c1 [Compound 445, 5-(2-fluoro-6-hydroxy-3-(1-(3-methoxyphenyl)-1H-imidazol-4-yl)phenyl)-1,2,5-thiadiazolidin-3-one 1,1-dioxide]	≤ 1000 nM	≤ 1000 nM
CC(C)CCn1cc(-c2cc(O)cc(N3CC(=O)NS3(=O)=O)c2F)cn1 [Compound 221, 5-(2-fluoro-5-hydroxy-3-(1-isopentyl-1H-pyrazol-4-yl)phenyl)-1,2,5-thiadiazolidin-3-one 1,1-dioxide]	> 1000 nM	> 1000 nM
Nc1nc2ccc(-c3ccc(O)c(N4CC(=O)NS4(=O)=O)c3F)cc2o1 [Compound 191, 5-(3-(2-aminobenzo[d]oxazol-6-yl)-2-fluoro-6-hydroxyphenyl)-1,2,5-thiadiazolidin-3-one 1,1-dioxide]	≤ 1000 nM	≤ 1000 nM
O=C1CN(c2c(O)ccc(-c3cnn(C4CCOCC4)c3)c2F)S(=O)(=O)N1 [Compound 214, 5-(2-fluoro-6-hydroxy-3-(1-(tetrahydro-2H-pyran-4-yl)-1H-pyrazol-4-yl)phenyl)-1,2,5-thiadiazolidin-3-one 1,1-dioxide]	≤ 1000 nM	≤ 1000 nM
O=C1CN(c2c(O)ccc(-c3cc(C4CC4)n(C4CC4)n3)c2F)S(=O)(=O)N1 [Compound 429, 5-(3-(1,5-dicyclopropyl-1H-pyrazol-3-yl)-2-fluoro-6-hydroxyphenyl)-1,2,5-thiadiazolidin-3-one 1,1-dioxide]	≤ 1000 nM	≤ 1000 nM
O=C1CN(c2c(O)ccc(-c3cnn(CC4CC4)c3)c2F)S(=O)(=O)N1 [Compound 131, 5-(3-(1-(cyclopropylmethyl)-1H-pyrazol-4-yl)-2-fluoro-6-hydroxyphenyl)-1,2,5-thiadiazolidin-3-one 1,1-dioxide]	≤ 1000 nM	≤ 1000 nM
O=C1CN(c2c(O)ccc(-c3cc(C4CC4)n(CC4CC4)n3)c2F)S(=O)(=O)N1 [Compound 409, 5-(3-(5-cyclopropyl-1-(cyclopropylmethyl)-1H-pyrazol-3-yl)-2-fluoro-6-hydroxyphenyl)-1,2,5-thiadiazolidin-3-one 1,1-dioxide]	≤ 1000 nM	≤ 1000 nM
O=C1CN(c2c(O)ccc(-c3cnn(CCC(F)F)c3)c2F)S(=O)(=O)N1 [Compound 510, 5-(3-(1-(3,3-difluoropropyl)-1H-pyrazol-4-yl)-2-fluoro-6-hydroxyphenyl)-1,2,5-thiadiazolidin-3-one 1,1-dioxide]	≤ 1000 nM	≤ 1000 nM
O=C1CN(c2c(O)ccc(-c3cnn(CC4CC5CCC(C4)O5)c3)c2F)S(=O)(=O)N1 (stereo not drawn) [Compound 422, 5-(3-(1-((8-oxabicyclo[3.2.1]octan-3-yl)methyl)-1H-pyrazol-4-yl)-2-fluoro-6-hydroxyphenyl)-1,2,5-thiadiazolidin-3-one 1,1-dioxide]	≤ 1000 nM	≤ 1000 nM
CC1(C)C=C(c2ccc(O)c(N3CC(=O)NS3(=O)=O)c2F)CN1 [Compound 519, 5-(3-(5,5-dimethyl-2,5-dihydro-1H-pyrrol-3-yl)-2-fluoro-6-hydroxyphenyl)-1,2,5-thiadiazolidin-3-one 1,1-dioxide]	> 1000 nM	> 1000 nM
O=C1CN(c2c(O)ccc(-c3ccc(NC(=O)C4CC4(F)F)cc3)c2F)S(=O)(=O)N1 (stereo not drawn) [Compound 403, N-(3′-(1,1-dioxido-4-oxo-1,2,5-thiadiazolidin-2-yl)-2′-fluoro-4′-hydroxy-[1,1′-biphenyl]-4-yl)-2,2-difluorocyclopropane-1-carboxamide]	≤ 1000 nM	≤ 1000 nM
O=C1CN(c2c(O)ccc(-c3cc(N4CC5(COC5)C4)n[nH]3)c2F)S(=O)(=O)N1 [Compound 466, 5-(3-(3-(2-oxa-6-azaspiro[3.3]heptan-6-yl)-1H-pyrazol-5-yl)-2-fluoro-6-hydroxyphenyl)-1,2,5-thiadiazolidin-3-one 1,1-dioxide]	≤ 1000 nM	≤ 1000 nM
CC(C)N1CC=C(c2ccc(O)c(N3CC(=O)NS3(=O)=O)c2F)C1 [Compound 461, 5-(2-fluoro-6-hydroxy-3-(1-isopropyl-2,5-dihydro-1H-pyrrol-3-yl)phenyl)-1,2,5-thiadiazolidin-3-one 1,1-dioxide]	≤ 1000 nM	≤ 1000 nM
CC(C)CCN1CCCC(c2ccc(O)c(N3CC(=O)NS3(=O)=O)c2F)C1 (stereo not drawn) [Compound 198, 5-(2-fluoro-6-hydroxy-3-(1-isopentylpiperidin-3-yl)phenyl)-1,2,5-thiadiazolidin-3-one 1,1-dioxide]	≤ 1000 nM	> 1000 nM
